In ChEMBL document CHEMBL1156829 (Proc Natl Acad Sci U S A, 2008):

Assays:
Plasmodium falciparum [1] = assay: NOVARTIS: Inhibition of Plasmodium falciparum W2 (drug-resistant) proliferation in erythrocyte-based infection assay; type: functional, organism-based; conditions: Plasmodium falciparum, W2; read-out: EC50
[2] = NOVARTIS: Cytotoxicity against human hepatocellular carcinoma cell line (Huh7); type: toxicity, cell-based, Huh-7; conditions: Huh7 cells (hepatocellular carcinoma cell line)
Plasmodium falciparum [3] = assay: NOVARTIS: Inhibition of Plasmodium falciparum 3D7 (drug-susceptible) proliferation in erythrocyte-based infection assay; type: functional, organism-based; conditions: Plasmodium falciparum, 3D7

SMILES | EC50 (Plasmodium falciparum [1]) | CC50 [2] | EC50 (Plasmodium falciparum [3])
O=C(NCc1ccco1)C1CCN(S(=O)(=O)c2ccc(Cl)cc2)CC1 | 355 nM | > 100000 nM | 514 nM
CCOC(=O)c1c(CSc2ccccc2)oc2cc(CN(C)C)c(O)c(Cl)c12 | 210 nM | 61600 nM | 321 nM
COc1ccccc1N1CCN(C(=O)CCCCSc2nnc3c4cc(F)ccc4n(Cc4ccc(F)cc4)c3n2)CC1 | 207 nM | > 57700 nM | 265 nM
O=C(c1cccc(Cl)c1)N1CCN(c2ccc([N+](=O)[O-])c(NC3CC3)c2)CC1 | 340 nM | > 100000 nM | 552 nM
CCCc1c(C(=O)OCC)c2cc(O)ccc2n1-c1ccc(OC)cc1 | 339 nM | > 100000 nM | 133 nM
O=C(Cc1ccccc1)NC(c1ccc(Cl)cc1)c1ccc2cccnc2c1O (centres undefined) | 337 nM | > 100000 nM | 209 nM
Nc1ccc(-c2nc3cc(Cc4ccc5[nH]c(-c6ccc(N)cc6)nc5c4)ccc3[nH]2)cc1 | 63.4 nM | 17900 nM | 243 nM
CN(C)c1ccc(C=CC(=O)NC(=O)c2ccccc2O)cc1 | 358 nM | > 100000 nM | 118 nM
O=C1CC(c2ccccc2)CC2=C1C(c1ccccc1F)Nc1ccccc1N2 (centres undefined) | 359 nM | > 100000 nM | 462 nM
CCC(=O)N(C)CCCNc1ccnc2cc(Cl)ccc12 | 341 nM | > 100000 nM | 467 nM
CC(C)(C)CC(C)(C)Nc1c(-c2ccccc2OC(=O)c2ccc([N+](=O)[O-])cc2)nc2ccccn12 | 5.28 nM | 1480 nM | 251 nM
Cc1nc(NN=Cc2c(O)ccc3ccccc23)cc(N2CCCCC2)n1 | 339 nM | > 100000 nM | 609 nM
Cc1ccc(OCC(=O)Nc2cccc(C(=O)O)c2)c(Br)c1 | > 34.9 nM | > 10000 nM | > 1250 nM
COc1ccccc1-n1nnnc1SCC(=O)Nc1cc([N+](=O)[O-])ccc1C | 349 nM | > 100000 nM | 651 nM
O=C(Nc1ccc(Cl)cc1)c1c2c(nc3ccccc13)-c1ccccc1CC2 | 338 nM | > 100000 nM | 410 nM
CCCCN(C(=O)Nc1c(C(C)C)cccc1C(C)C)C(CC)c1nc2ccccc2c(=O)n1-c1cccc(Cl)c1 (centres undefined) | < 21.2 nM | > 6290 nM | > 1250 nM
CCCCOC(=O)C1=C(C)NC2=C(C(=O)CCC2)C1c1ccc(Cl)c(Cl)c1 (centres undefined) | 359 nM | > 100000 nM | 574 nM
COc1ccc(C2CC(=O)C3=C(C2)NC(C)=C(C(=O)OC2CCCCC2)C3c2ccc(F)cc2)cc1OC (centres undefined) | 53 nM | 15200 nM | 138 nM
O=C1C(NC2CCCC2)=C(N2CCCCC2)C(=O)c2ccccc21 | 34.2 nM | 10100 nM | 22.4 nM
COc1cc(OC)c(Br)c(-n2c(C(C)N(CCC(C)C)C(=O)c3ccccc3C)nc3ccccc3c2=O)c1 (centres undefined) | < 33.7 nM | > 10000 nM | > 1250 nM
COc1cc(CNc2ccc(N3CCCCC3)cc2)ccc1OCc1ccccc1F | 335 nM | > 100000 nM | 475 nM
CN(C)CCNCc1cc(-c2ccnc3cc(Cl)ccc23)ccc1O | 152 nM | 45600 nM | 120 nM
CCOc1ccc(-c2cc(C)[n+](CCO)c(-c3ccc(OCC)cc3)c2)cc1 | 352 nM | > 100000 nM | 1080 nM
COc1ccc(C=NNc2nc3ccccc3[nH]2)cc1OC | 128 nM | 36500 nM | 243 nM
CCC(C(=O)Oc1ccccc1-c1nc2cc(C)ccn2c1NC(C)(C)CC(C)(C)C)c1ccccc1 (centres undefined) | 34.7 nM | > 10000 nM | 894 nM
CCOC(=O)c1c(C)n(Cc2ccccc2)c2c1cc(O)c1c2c(-c2ccccc2)nn1-c1ccccc1 | 345 nM | > 100000 nM | 1060 nM
CCCOC(=O)C1=C(C)NC2=C(C(=O)CC(c3ccc(OC)c(OC)c3)C2)C1c1cccc(Br)c1 (centres undefined) | 74.4 nM | 21600 nM | 322 nM

SMILES | EC50 (Plasmodium falciparum [1]) | CC50 [2] | EC50 (Plasmodium falciparum [3])
Cc1ccnc(NC(c2ccncc2)c2ccc3cccnc3c2O)c1 (centres undefined) | 357 nM | > 100000 nM | 1000 nM
COc1cc(C(=O)ON=C(N)Cc2cccc3ccccc23)cc(OC)c1OC | 171 nM | 48100 nM | 280 nM
CCOC(=O)CN(C)Cc1ccc2c(NC(=O)c3ccc(C)s3)c(C(=O)OC)sc2n1 | 354 nM | > 100000 nM | 766 nM
O=C(Nc1ccc(-n2cccn2)cc1)C1CCN(CC=Cc2ccccc2)CC1 | 344 nM | > 99800 nM | 887 nM
O=[N+]([O-])c1cccc(-c2ccc(C=NNc3nc4ccccc4[nH]3)o2)c1 | 344 nM | > 100000 nM | 379 nM
O=C(CC1OC(=O)c2ccccc21)c1ccc(Cl)cc1 (centres undefined) | 342 nM | > 100000 nM | 717 nM
CCOC(=O)c1cn(CC)c2cc(N3CCCCC3)c(F)cc2c1=O | 336 nM | > 100000 nM | 166 nM
Cc1cc(NC(=O)C=Cc2ccccc2Cl)ccc1Br | 344 nM | > 100000 nM | 1270 nM
Cc1ccn2c(NC(C)(C)CC(C)(C)C)c(-c3ccccc3OC(=O)c3ccco3)nc2c1 | 34.1 nM | > 10000 nM | 828 nM
CC(C)(C)CC(C)(C)Nc1c(-c2ccccc2OC(=O)/C=C/c2ccccc2)nc2ccccn12 | 34 nM | > 10000 nM | 457 nM
COc1ccccc1C1CC(=O)N2CN(Cc3ccccc3)CSC2=C1C#N (centres undefined) | 337 nM | > 100000 nM | 599 nM
CCOC(=O)c1[nH]c(C)c(Cc2ccc(OCC)cc2)c1C | 347 nM | > 100000 nM | 279 nM
O=C1C2C(C(=O)N1c1ccccc1F)C1(c3ccccc3)C(=O)C2(c2ccccc2)C(c2ccccc2)=C1c1ccccc1 (centres undefined) | 344 nM | > 100000 nM | 811 nM
CCSCCOC(=O)C1=C(C)NC2=C(C(=O)CCC2)C1c1ccc(OC)c(Br)c1 (centres undefined) | 360 nM | > 100000 nM | 371 nM
Cc1ccc(NC(=O)C2CSC(c3cccc(F)c3)N2C(=O)c2ccc(C(C)(C)C)cc2)cc1 (centres undefined) | 349 nM | > 100000 nM | 449 nM
COc1ccc(C2=C(c3ccc(OC)cc3)C3(c4ccccc4)C(=O)C2(c2ccccc2)C2C(=O)N(c4cc(Cl)ccc4C)C(=O)C23)cc1 (centres undefined) | 346 nM | > 100000 nM | 447 nM
CCC(C)NC(=O)c1nn(-c2ccc(OC)cc2)c(=O)c2ccccc12 (centres undefined) | 353 nM | > 100000 nM | 798 nM
CC(=O)N(C1=C(N2CCC(C)CC2)C(=O)c2ccccc2C1=O)c1cccc(F)c1 | 233 nM | 66400 nM | 241 nM
CCOC(=O)C1=C(C)N=c2sc(=Cc3ccccc3OC(C)=O)c(=O)n2C1c1ccc(OC)cc1 (centres undefined) | 339 nM | > 100000 nM | 515 nM
COc1ccc(CNC(=O)C2CNCC2c2ccc(C(F)(F)F)cc2)cc1 (centres undefined) | 85.7 nM | 24100 nM | 165 nM
CCCN(CCC)C1=CC(=O)C(C(C)(C)C)=CC1=O | 171 nM | 50900 nM | 216 nM
CC(C)(C)c1csc(NC(=O)c2ccc(S(=O)(=O)N3CCCCC3)cc2)n1 | 175 nM | 49100 nM | > 12500 nM
O=C1CN=C(c2ccccc2)c2cc(Cl)ccc2N1Cc1cc(=O)n2ccccc2n1 | 344 nM | > 100000 nM | 3550 nM
CCC(Oc1ccc(C(C)(C)CC)cc1C(C)(C)CC)C(=O)Nc1ccc([N+](=O)[O-])cc1O (centres undefined) | 348 nM | > 100000 nM | > 5260 nM
Oc1c(CN2CCN(Cc3ccc4cccnc4c3O)CC2)ccc2cccnc12 | 318 nM | > 89300 nM | 561 nM
CCC1(C)CC(CCNCc2ccccc2O)(c2ccc(OC)cc2)CCO1 (centres undefined) | 76.5 nM | 21400 nM | 455 nM
